Results reported in patent US20090029992A1, “SUBSTITUTED PYRAZOLE COMPOUNDS” (priority 2007, published 2009).

Assays:
[1] = target: T1, N-terminal GST-tagged recombinant human Flt3, residues 564-end (Homo sapiens, UniProt P36888); test: Flt3 kinase inhibition assay (33P-ATP filter assay); format: biochemical; conditions: 40 minutes at room temperature
T1 construct: recombinant human Flt3, residues 564-end; GST (N); purchased Upstate USA Inc, 706 Forest Street, Charlottesville, Va
T1 sequence (P36888 564-993 limits assumed): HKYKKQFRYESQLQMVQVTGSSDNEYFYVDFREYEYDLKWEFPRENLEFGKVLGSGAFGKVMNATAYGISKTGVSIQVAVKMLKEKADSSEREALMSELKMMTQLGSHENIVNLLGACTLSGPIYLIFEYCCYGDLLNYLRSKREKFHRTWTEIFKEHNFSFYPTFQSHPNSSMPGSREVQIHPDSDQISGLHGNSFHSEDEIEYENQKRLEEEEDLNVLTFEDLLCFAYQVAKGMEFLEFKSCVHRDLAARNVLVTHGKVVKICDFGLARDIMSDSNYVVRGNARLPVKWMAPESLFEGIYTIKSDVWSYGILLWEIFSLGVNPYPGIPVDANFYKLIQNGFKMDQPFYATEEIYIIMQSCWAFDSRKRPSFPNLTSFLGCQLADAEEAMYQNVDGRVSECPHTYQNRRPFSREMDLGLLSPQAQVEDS
Procedure, shortened: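 Serial compound dilutions incubated 40 min at room temperature with 5-10 mU Flt3 kinase, 50 μM peptide substrate and [γ-33P]ATP/10 mM magnesium acetate, pH 7.0. Phosphoric acid stop, filter capture and scintillation counting; activity compared with uninhibited reactions.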

[2] = target: T2, N-terminal His6-tagged recombinant human KDR, residues 790-end (Homo sapiens, UniProt P35968); test: KDR kinase inhibition assay (33P-ATP filter assay); format: biochemical
T2 construct: recombinant human KDR, residues 790-end; His6 (N); purchased Upstate USA Inc, 706 Forest Street, Charlottesville, Va
T2 sequence (P35968 790-1356 limits assumed): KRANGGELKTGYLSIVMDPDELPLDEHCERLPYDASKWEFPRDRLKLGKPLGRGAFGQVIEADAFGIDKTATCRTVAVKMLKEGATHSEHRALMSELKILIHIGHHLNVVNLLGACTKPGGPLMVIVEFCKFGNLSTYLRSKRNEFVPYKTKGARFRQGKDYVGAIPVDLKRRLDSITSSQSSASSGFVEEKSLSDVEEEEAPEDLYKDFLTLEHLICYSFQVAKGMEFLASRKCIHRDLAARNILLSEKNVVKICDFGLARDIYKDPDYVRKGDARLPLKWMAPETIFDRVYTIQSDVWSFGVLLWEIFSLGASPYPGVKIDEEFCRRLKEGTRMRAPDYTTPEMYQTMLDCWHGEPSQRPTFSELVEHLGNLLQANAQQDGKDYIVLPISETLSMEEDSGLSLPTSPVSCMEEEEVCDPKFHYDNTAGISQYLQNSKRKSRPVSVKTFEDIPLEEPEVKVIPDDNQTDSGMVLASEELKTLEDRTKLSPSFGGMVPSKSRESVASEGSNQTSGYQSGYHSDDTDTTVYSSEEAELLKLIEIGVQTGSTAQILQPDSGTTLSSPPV
Procedure, shortened: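 His6-tagged human KDR (residues 790-end, 5-10 mU) with 0.33 mg/mL myelin basic protein in 8 mM MOPS pH 7.0, 0.2 mM EDTA, 10 mM magnesium acetate and [γ-33P]ATP; 40 min at room temperature. Stopped with phosphoric acid, filter-bound 33P counted; inhibition relative to no-inhibitor controls.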

HCT116 cells = test: Whole cell cytotoxicity assay, Sulforhodamine B; format: cell-based; conditions: Homo sapiens, HCT-116, HCT116, 96 hours incubation, SRB; for IC50: read-out: IC50 values in this assay (HCT116 cell growth); for GI50: read-out: GI50 HCT116 cell growth
Procedure, shortened: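 HCT116 cells (500/well) in DMEM/10% FBS/2 mM glutamine were preincubated 24 h, then exposed to compound for 96 h at 37 °C, 5% CO2, in duplicate. Cells were fixed with TCA and stained with sulforhodamine B (A570). GI50, TGI and LC50 were derived relative to a time-zero plate and an untreated control.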

[3] = group with IC50 greater than 100 nM

| IC50 [1] [µM] | IC50 ([2]; 40 minutes at room temperature) [µM] | IC50 [2, 3] [µM] | Structure (SMILES) | IC50 (HCT116 cells) [µM] | GI50 (HCT116 cells) [µM] |
| --- | --- | --- | --- | --- | --- |
| ≤ 0.1 | ≤ 0.1 | – | Cc1cc(Nc2cc(N3CCN(C)CC3)nc(-c3ccc(Cl)cc3)n2)n[nH]1 [Compound 35, 2-(4-chlorophenyl)-N-(5-methyl-1H-pyrazol-3-yl)-6-(4-methylpiperazin-1-yl)pyrimidin-4-amine] | 1 to 10 | – |
| ≤ 0.1 | ≤ 0.1 | – | Cc1cc(Nc2cc(N3CCN(C)CC3)nc(-c3cccc(Cl)c3)n2)n[nH]1 [Compound 36, 2-(3-chlorophenyl)-N-(5-methyl-1H-pyrazol-3-yl)-6-(4-methylpiperazin-1-yl)pyrimidin-4-amine] | – | ≤ 1 |
| ≤ 0.1 | ≤ 0.1 | – | Cc1cc(Nc2cc(N3CCN(C)CC3)nc(-c3ccccc3Cl)n2)n[nH]1 [Compound 37, 2-(2-chlorophenyl)-N-(5-methyl-1H-pyrazol-3-yl)-6-(4-methylpiperazin-1-yl)pyrimidin-4-amine] | 1 to 10 | – |
| ≤ 0.1 | ≤ 0.1 | – | Cc1ccc(-c2nc(Nc3cc(C)[nH]n3)cc(N3CCN(C)CC3)n2)cc1 [Compound 38, N-(5-methyl-1H-pyrazol-3-yl)-6-(4-methylpiperazin-1-yl)-2-p-tolylpyrimidin-4-amine] | – | ≤ 1 |
| ≤ 0.1 | ≤ 0.1 | – | Cc1cccc(-c2nc(Nc3cc(C)[nH]n3)cc(N3CCN(C)CC3)n2)c1 [Compound 39, N-(5-methyl-1H-pyrazol-3-yl)-6-(4-methylpiperazin-1-yl)-2-m-tolylpyrimidin-4-amine] | – | ≤ 1 |
| ≤ 0.1 | ≤ 0.1 | – | Cc1cc(Nc2cc(N3CCN(C)CC3)nc(-c3ccccc3C)n2)n[nH]1 [Compound 40, N-(5-methyl-1H-pyrazol-3-yl)-6-(4-methylpiperazin-1-yl)-2-o-tolylpyrimidin-4-amine] | 1 to 10 | – |
| ≤ 0.1 | ≤ 0.1 | – | COc1ccc(-c2nc(Nc3cc(C)[nH]n3)cc(N3CCN(C)CC3)n2)cc1 [Compound 41, 2-(4-methoxyphenyl)-N-(5-methyl-1H-pyrazol-3-yl)-6-(4-methylpiperazin-1-yl)pyrimidin-4-amine] | – | ≤ 1 |
| ≤ 0.1 | ≤ 0.1 | – | COc1cccc(-c2nc(Nc3cc(C)[nH]n3)cc(N3CCN(C)CC3)n2)c1 [Compound 42, 2-(3-methoxyphenyl)-N-(5-methyl-1H-pyrazol-3-yl)-6-(4-methylpiperazin-1-yl)pyrimidin-4-amine] | – | ≤ 1 |
| ≤ 0.1 | ≤ 0.1 | – | Cc1cc(Nc2cc(N(C)CCN(C)C)nc(-c3cccc(Cl)c3)n2)n[nH]1 [Compound 49, 2-(3-chlorophenyl)-N^4-(2-(dimethylamino)ethyl)-N^4-methyl-N^6-(5-methyl-1H-pyrazol-3-yl)pyrimidine-4,6-diamine] | – | ≤ 1 |
| ≤ 0.1 | – | ≤ 1 | Cc1cccc(-c2nc(Nc3cc(C)[nH]n3)cc(N(C)CCN(C)C)n2)c1 [Compound 52, N^4-(2-(dimethylamino)ethyl)-N^4-methyl-N^6-(5-methyl-1H-pyrazol-3-yl)-2-m-tolylpyrimidine-4,6-diamine] | – | ≤ 1 |
| ≤ 0.1 | – | ≤ 1 | COc1ccc(-c2nc(Nc3cc(C)[nH]n3)cc(N(C)CCN(C)C)n2)cc1 [Compound 54, N^4-(2-(dimethylamino)ethyl)-2-(4-methoxyphenyl)-N^4-methyl-N^6-(5-methyl-1H-pyrazol-3-yl)pyrimidine-4,6-diamine] | – | ≤ 1 |
| ≤ 0.1 | – | ≤ 1 | COCCN(C)c1cc(Nc2cc(C)[nH]n2)nc(-c2cccc(Cl)c2)n1 [Compound 62, 2-(3-chlorophenyl)-N^4-(2-methoxyethyl)-N^4-methyl-N^6-(5-methyl-1H-pyrazol-3-yl)pyrimidine-4,6-diamine] | 1 to 10 | – |
| ≤ 0.1 | ≤ 0.1 | – | Cc1cc(Nc2cc(NC3CCOCC3)nc(-c3cccc(N(C)C)c3)n2)n[nH]1 [Compound 74, 2-(3-(dimethylamino)phenyl)-N^4-(5-methyl-1H-pyrazol-3-yl)-N^6-(tetrahydro-2H-pyran-4-yl)pyrimidine-4,6-diamine] | – | ≤ 1 |
| ≤ 0.1 | – | ≤ 1 | Cc1cc(Nc2cc(N3CCN(C)CC3)nc(-c3ccc(C(C)(C)C)cc3)n2)n[nH]1 [Compound 82, 2-(4-tert-butylphenyl)-N-(5-methyl-1H-pyrazol-3-yl)-6-(4-methylpiperazin-1-yl)pyrimidin-4-amine] | 1 to 10 | – |
| ≤ 0.1 | ≤ 0.1 | – | Cc1cc(Nc2cc(N3CCN(C)CC3)nc(-c3ccc(N(C)C)cc3)n2)n[nH]1 [Compound 85, 2-(4-(dimethylamino)prenyl)-N-(b-methyl-1H-pyrazol-3-yl)-6-(4-methylpiperazin-1-yl)pyrimidin-4-amine] | – | ≤ 1 |
| ≤ 0.1 | – | ≤ 1 | Cc1cc(Nc2cc(N3CCN(C)CC3)nc(-c3cccnc3)n2)n[nH]1 [Compound 89, N-(5-methyl-1H-pyrazol-3-yl)-6-(4-methylpiperazin-1-yl)-2-(pyridin-3-yl)pyrimidin-4-amine] | 1 to 10 | – |
| ≤ 0.1 | – | ≤ 1 | Cc1cc(Nc2cc(N3CCN(C)CC3)nc(-c3cccc(C(F)(F)F)c3)n2)n[nH]1 [Compound 101, N-(5-methyl-1H-pyrazol-3-yl)-6-(4-methylpiperazin-1-yl)-2-(3-(trifluoromethyl)phenyl)pyrimidin-4-amine] | 1 to 10 | – |
| ≤ 0.1 | – | ≤ 1 | COCCN(C)c1cc(Nc2cc(C)[nH]n2)nc(-c2cccc(N(C)C)c2)n1 [Compound 119, 2-(3-(dimethylamino)phenyl)-N^4-(2-methoxyethyl)-N^4-methyl-N^6-(5-methyl-1H-pyrazol-3-yl)pyrimidine-4,6-diamine] | 1 to 10 | – |
| ≤ 0.1 | – | ≤ 1 | Cc1cc(Nc2cc(NC3CCOCC3)nc(-c3ccc4c(c3)OCCO4)n2)n[nH]1 [Example 130, 2-(2,3-dihydrobenzo[b][1,4]dioxin-6-yl)-N^4-(5-methyl-1H-pyrazol-3-yl)-N^6-(tetrahydro-2H-pyran-4-yl)pyrimidine-4,6-diamine] | 1 to 10 | – |
| ≤ 0.1 | ≤ 0.1 | – | Cc1cc(Nc2cc(NC3CCOCC3)nc(-c3ccc4c(c3)OCO4)n2)n[nH]1 [Example 132, 2-(benzo[d][1,3]dioxol-5-yl)-N^4-(5-methyl-1H-pyrazol-3-yl)-N^6-(tetrahydro-2H-pyran-4-yl)pyrimidine-4,6-diamine] | 1 to 10 | – |
| ≤ 0.1 | ≤ 0.1 | – | Cc1cc(Nc2cc(N3CCN(C)CC3)nc(-c3cccc4ccccc34)n2)n[nH]1 [Example 134, N-(5-methyl-1H-pyrazol-3-yl)-6-(4-methylpiperazin-1-yl)-2-(naphthalen-1-yl)pyrimidin-4-amine] | 1 to 10 | – |
| ≤ 0.1 | ≤ 0.1 | – | Cc1cc(Nc2cc(N3CCN(C)CC3)nc(-c3ccc4ccccc4c3)n2)n[nH]1 [Example 135, N-(5-methyl-1H-pyrazol-3-yl)-6-(4-methylpiperazin-1-yl)-2-(naphthalen-2-yl)pyrimidin-4-amine] | – | ≤ 1 |
| ≤ 0.1 | ≤ 0.1 | – | Cc1cc(Nc2cc(N3CCN(C)CC3)nc(-c3ccc4c(c3)OCCO4)n2)n[nH]1 [Example 137, 2-(2,3-dihydrobenzo[b][1,4]dioxin-6-yl)-N-(5-methyl-1H-pyrazol-3-yl)-6-(4-methylpiperazin-1-yl)pyrimidin-4-amine] | – | ≤ 1 |
| ≤ 0.1 | ≤ 0.1 | – | Cc1cc(Nc2cc(N3CCN(C)CC3)nc(-c3ccc4c(c3)OCO4)n2)n[nH]1 [Example 139, 2-(benzo[d][1,3]dioxol-5-yl)-N-(5-methyl-1H-pyrazol-3-yl)-6-(4-methylpiperazin-1-yl)pyrimidin-4-amine] | – | ≤ 1 |
| ≤ 0.1 | – | ≤ 1 | COCCN(C)c1cc(Nc2cc(C)[nH]n2)nc(-c2ccc3c(c2)OCO3)n1 [Example 153, 2-(benzo[d][1,3]dioxol-5-yl)-N^4-(2-methoxyethyl)-N^4-methyl-N^6-(5-methyl-1H-pyrazol-3-yl)pyrimidine-4,6-diamine] | 1 to 10 | – |
